Test results published in patent US7115665B1, “Inhibitors of endo-exonuclease activity for treating cancer” (Onocozyme Pharma, Inc., priority 2000, dated 2006).
Where two headings read alike, the source gives them in different places.

Legend:
[1] = tested on: MCF-7 breast cancer cells; conditions: read-out: LC50; MCF-7, 2 day exposure
H520 NSCLC cells = assay: cells; conditions: read-out: LC50
human endo-exonuclease = assay: Endo-exonuclease nuclease activity inhibition assay; assay type: biochemical
Experimental: The cultured cells were detached with trypsin-EDTA and the cell suspensions were centrifuged at 4° C. with a force of 700 g for 10 minutes. The cell pellets were washed twice with cold phosphate buffered saline (PBS). The cells were then resuspended and sonicated in 20 mM Tris-HCl, pH 7.5, containing 5 mM EDTA and 1 mM PMSF (buffer A). The resulting cell lysis suspensions were centrifuged at 4° C. at 10,000 g for 15 min. […] After washing extensively with buffer A, (i.e. until the A280 of the eluates were zero), the column was then eluted with buffer A containing 3.5 M MgCl2 to elute the endo-exonuclease. The eluted endo-exonuclease was dialyzed extensively against buffer A with at least two changes of buffer and one change of distilled water. The endo-exonuclease was then concentrated by lyophilization.
One unit of activity was defined as the amount of deoxyribonuclease that renders 1 μg of DNA acid-soluble in 30 min at 37° C. For the inhibition assay with the drugs, the drugs were added to the endo-exonuclease prior to the start of the nuclease reaction.

H460 NSCLC cells = assay: cells; conditions: read-out: LC50
H661 NSCLC cells = assay: cells; conditions: read-out: LC50
HT29 colon cancer cells [2] = conditions: read-out: LC50; HT29, 2 day exposure
HT29 colon cancer cells [3] = assay: cells; conditions: Homo sapiens, read-out: LC50
[4] = tested on: MCF-7 breast cancer cells; assay: cells; conditions: Homo sapiens, read-out: LC50
[5] = mouse, in vivo, ip
Experimental: (§2) A preliminary study was conducted on non-tumour bearing mice to examine the maximal tolerable doses of pentamidine that can be used for antitumour studies. Three intraperitoneal injections (day 1, day 3, and day 5) were tested of 25, 50, 100 and 200 mg/Kg of body weight respectively.

[6] = tested on: normal primary human cells (human primary fibroblast cells); assay: Cell survival, clonogenic assay; assay type: cell-based; conditions: same conditions (0.1 mM to 1 mM)
Excerpt: These cells are normal human skin fibroblasts.

MCF7 cells = assay: Cell survival, clonogenic assay; assay type: cell-based, human; conditions: 1 week growth
[7] = tested on: Lewis lung carcinoma (M47) lung metastases; assay: Lewis lung carcinoma lung metastases; assay type: in vivo, mouse (C57BL/10); conditions: for Number of Metastases/Lung: Blank 34 ± 3
Excerpt: All animals were inoculated at the same site.
Tumour growth was monitored over time. […] Tumours, organs or both were removed under sterile conditions. Tumours were weighed.
Animals were subjected to surgery to remove the primary tumour. The mice were lightly anesthetized with Forane. The skin overlying the tumour was cleaned with betadine and ethanols, in a laminar flow hood. A small skin incision (0.5–1 cm) was made using a sterile scalpel, and the tumour was carefully separated from the normal tissues (skin and muscle). Lewis Lung carcinoma cells (at early stage of growth; 1–3 weeks) are a well localized tumour and separation was easy to achieve without any significant damage to normal tissues. The tumour was removed, weighed and in some cases fixed for histopathology purposes. The wound was closed with surgical stainless steel clips (Autoclips; 9 mm; Clay Adams, Inc. Parsippany, N.J.). This site was further disinfected with betadine and the animal was housed as described earlier.
In this group, mice were randomized after surgery into a group of 5 per cage. Cages were randomly assigned to specific experimental groups. The mice were then labelled by numbers using the “ear punching” method. Mice were checked on a daily basis to ensure the absence of infection. Animals with discomfort were sacrificed immediately. For each experiment, an additional extra spared group of control mice was included to determine the optimal timing for sacrifice in order to obtain a significant number of well localized lung metastases. This group was subjected to the same experimental procedure as group 1 with the exception of drug treatment.
(§1) The pentamidine and cisplatinum were injected by intraperitoneal injections. Adriamycin was injected intravenously.
At the end of each experiment (a total of 5–8 weeks), animals were sacrificed by dislocation and autopsied. Tumours, organs or both were removed under sterile conditions [using a laminar flow hood]. Tumours were weighed. […] Lungs were fixed in 10% Bouin's fixative diluted in a formalin solution, and lung surface metastases were counted using a stereomicroscope at 4× magnification or a magnifying-glass, and in some cases lungs were embedded in paraffin wax according to standard procedures. Embedded tissues were used to confirm metastases and further examine histopathological changes.

cancer cells = assay: Efficiency of drug combination at killing cancer cells; assay type: cell-based; conditions: FIG. 4; efficiency from LC50 ratios
[8] = tested on: Lewis lung carcinoma (M47) primary tumour
Experimental: Lewis Lung Carcinoma Cell Line and Cell Culture: The Lewis lung carcinoma clone, M47, is a metastatic model. […] For tumour induction, cells were washed three times with phosphate buffer solution. They were then re-suspended at a dilution of 1×10^6 cells/0.1 ml. Only cells where viability was >95% were used for in vivo studies.
The mouse strain used in this study was C57BL/10. After one-week of acclimatization, cells were transplanted into the mice subcutaneously, as a suspension of tumour cells. All animals were inoculated at the same site.
To measure the effect of drugs on the primary tumour, drug solutions were administered by intraperitoneal (ip) injection every two days. Animals were subjected, on a daily basis, to general examination. Tumour growth was monitored over time. To determine the effect of drugs on tumour metastasis, the tumours were allowed to reach a size of 0.5–1.0 cm^3. Mice were randomized into various groups and the drugs were then given by ip. At the end of each experiment, animals were sacrificed and autopsied. Tumours, organs or both were removed under sterile conditions. Tumours were weighed. Organs were examined for gross pathological changes and then fixed in formalin. Lungs were fixed in Bouin's fixative and lung surface metastases were counted using a stereomicroscope.
The Lewis lung carcinoma clone, M47, with a high metastatic potential to the lung was used. […] The cell used was confirmed to be free of mycoplasma. Cells were maintained in RPMI-1640 medium supplemented with 10% fetal bovine serum and 1% penicillin-streptomycin, under 5% CO2. Cells were then propagated and stocks of the same passages were established and stored in liquid nitrogen. Oncozyme studies were done with the same stock of cells and same passage number.
For tumour induction, cells were grown to 70% confluence in complete medium and then collected using trypsin-EDTA solution [0.05% trypsin 0.53 mM EDTA-4Na in HBSS without Ca++. Mg++, and NaHCO3; Celigro No. 25–052-Li]. Cells were then centrifuged and washed three times with phosphate buffer solution [D-PBS, Ca++ and Mg++free; Cellgro No. 21–031-LV], and resuspended at a dilution of 0.1 to 1×10^6 cells/0.1 ml. Viability was examined by trypan blue staining and only cells in which the viability was >95% were used for in vivo studies.
The mouse strain used in this study is C57BL/10 from Charles River Inc. Animals were housed 5 per cage and were fed a diet of animal chow and water ad libitum. After one week acclimatization, LLC cells were transplanted subcutaneously, as a suspension of tumour cells [2−5×10^5 viable cells per 0.1 ml], in the axillary region of the right flank. All animals were inoculated at the same site. Animals were subjected, on a daily basis, to general examination. Tumour growth was monitored every second or third day using calipers. Parameters measured were: tumour measured along the longest axis (length) and the perpendicular shortest axis (width) and the relative tumour volume (in cm^3) was calculated by the formula: [length (cm)×(width cm)^2] (approximately 10–15 days), mice were randomized into one of the following groups:
The conditions for this group were identical to the group used for the experiments on metastases with the exception that the primary tumour was not removed, and the animals were maintained until the tumours reached a large size that justified animal sacrifice, or the animals manifested a discomfort that justified their sacrifice (reduced mobility, severe respiratory symptoms, etc.).
Control animals were given the same volume of saline solution [0.9% sodium chloride]. The dose of each drug was normalized to body weight per animal.
as §1

[9] = tested on: RIF-1 radiation-induced fibrosarcoma tumour; assay: RIF tumour mouse model, polymer implant
[10] = Toxicity / maximal tolerable dose in non-tumour bearing mice; conditions: 100 mg/Kg ip, days 1, 3, 5, FIG. 8
Experimental: as §2

HeLa cells = assay: Cell survival, clonogenic assay; assay type: cell-based, human; conditions: 1 week growth

CC(=O)NCC(=O)O.CC(=O)NCC(=O)O.N=C(N)c1ccc(N=NNc2ccc(C(=N)N)cc2)cc1 [Berenil, berenil]
CC50 [1]: 3000 µM | CC50 (H520 NSCLC cells; H520, 2 day exposure): > 4000 µM | Percent of Inhibition of endo-exonuclease activity (human endo-exonuclease; 2 mM): 17% | CC50 (H460 NSCLC cells; H460, 2 day exposure): > 4000 µM | CC50 (H661 NSCLC cells; H661, 2 day exposure): > 4000 µM | CC50 (HT29 colon cancer cells [2]): > 4000 µM

Cn1cc(NC(=O)c2cc(NC(=O)c3cc(NC=O)cn3C)cn2C)cc1C(=O)NCCC(=N)N [Distamycin A, distamycin A]
CC50 [1]: 1520 µM | CC50 (H520 NSCLC cells; H520, 2 day exposure): > 2000 µM | Percent of Inhibition of endo-exonuclease activity (human endo-exonuclease; 38 μM): 30% | CC50 (H460 NSCLC cells; H460, 2 day exposure): > 2000 µM | CC50 (H661 NSCLC cells; H661, 2 day exposure): > 2000 µM | CC50 (HT29 colon cancer cells [2]): > 2000 µM

COc1cc([C@@H]2c3cc4c(cc3[C@@H](O[C@@H]3O[C@@H]5CO[C@@H](C)O[C@H]5[C@H](O)[C@H]3O)[C@H]3COC(=O)[C@H]23)OCO4)cc(OC)c1O [Etoposide, etoposide]
CC50 (HT29 colon cancer cells [3]; HT-29, 48 h): 700 µM | CC50 (HT29 colon cancer cells [3]; HT-29, 96 h): 400 µM | CC50 (H520 NSCLC cells; Homo sapiens, NCI-H520, 48 h): > 34000 µM | CC50 (H520 NSCLC cells; Homo sapiens, NCI-H520, 96 h): > 34000 µM | Percent of Inhibition of endo-exonuclease activity (human endo-exonuclease; 50 μM): 0% | CC50 (H460 NSCLC cells; Homo sapiens, NCI-H460, 48 h): > 34000 µM | CC50 (H460 NSCLC cells; Homo sapiens, NCI-H460, 96 h): > 34000 µM | CC50 (H661 NSCLC cells; Homo sapiens, NCI-H661, 48 h): 28000 µM | CC50 (H661 NSCLC cells; Homo sapiens, NCI-H661, 96 h): 15600 µM | CC50 ([4]; MCF7, 48 h): 1000 µM | CC50 ([4]; MCF7, 96 h): 1100 µM

CO[C@@]12[C@H](COC(N)=O)C3=C(C(=O)C(C)=C(N)C3=O)N1C[C@@H]1N[C@@H]12 [Mitomycin C, mitomycin C]
Percent of Inhibition of endo-exonuclease activity (human endo-exonuclease; 50 μM): 0%

N=C(N)c1ccc(OCCCCCOc2ccc(C(=N)N)cc2)cc1 [Pentamidine, pentamidine]
Highest tolerated dose [5]: 50 mg/kg | Effect on survival of normal primary human cells [6]: no effect | Concentration at which compound began to kill the cancer cells (MCF7 cells): 0.1 mM | Lethal concentration (MCF7 cells): 1 mM | CC50 (HT29 colon cancer cells [3]; HT-29, 48 h): 270 µM | CC50 (HT29 colon cancer cells [3]; HT-29, 96 h): 60 µM | CC50 (H520 NSCLC cells; Homo sapiens, NCI-H520, 48 h): 240 µM | CC50 (H520 NSCLC cells; Homo sapiens, NCI-H520, 96 h): 130 µM | Percent of Inhibition of endo-exonuclease activity (human endo-exonuclease; 25 μM): 37% | Percent of Inhibition of endo-exonuclease activity (human endo-exonuclease; 50 μM): 50% | Percent of Inhibition of endo-exonuclease activity (human endo-exonuclease; 100 μM): 100% | Number of Metastases/Lung ([7]; 25 mg/kg): 23 ± 3 | Inhibition of lung metastases versus saline-treated control ([7]; 50 mg/Kg, p<0.001, FIG. 16): more than 50% | Number of Metastases/Lung ([7]; 50 mg/kg): 10 ± 2 | Effect on metastases, 50 mg/Kg/ip pentamidine with 4 mg/kg/ip cisplatin ([7]; FIG. 17): enhanced effect | Effect on metastases, 50 mg/Kg/ip pentamidine with 5 mg/kg adriamycin/iv ([7]; FIG. 20): some beneficial effect | Effect on lung metastases ([7]; doses of 10–25 mg/Kg): no significant effect | Reduction of lung metastases ([7]; highest dosage tested): reduced metastases in a dose dependant manner by a factor of three | Most active dose on lung metastases ([7]; p<0.01): 50 mg/kg | CC50 (H460 NSCLC cells; Homo sapiens, NCI-H460, 48 h): 1340 µM | CC50 (H460 NSCLC cells; Homo sapiens, NCI-H460, 96 h): 160 µM | Efficiency at killing cancer cells of cisplatin combined with pentamidine versus cisplatin alone (cancer cells): up to 16,000 times | CC50 (H661 NSCLC cells; Homo sapiens, NCI-H661, 48 h): 150 µM | CC50 (H661 NSCLC cells; Homo sapiens, NCI-H661, 96 h): 70 µM | Antitumour activity compared with cisplatin at 3–4 mg/Kg/ip ([8]; FIG. 13): as active as cisplatin | Primary tumour effect, 50 mg/Kg pentamidine combined with adriamycin ([8]; FIG. 18): some beneficial effect | Tumour response, combined with 3 mg/Kg cisplatin ([8]; FIGS. 14a and 14b): some animals showed a complete regression of the tumours | Inhibition of cancer growth compared with cisplatinum ([8]; daily injection, FIG. 7): as effective in inhibiting the cancer growth as cisplatinum | Most active dose on growth of LLC primary tumour ([8]; ip, p<0,01, FIGS. 10 to 15): 50 mg/kg | Efficacy at slowing tumour growth ([9]; biodegradeable polymer tumour implant, 100 mm^3 RIF tumours, FIG. 5): intermediate in its efficacy at slowing tumour growth between the saline control and 5-fluorouracil | Side effects in test mice ([9]; polymer implant plus radiation): no obvious signs of any side effects | Tumour growth, combination with radiation ([9]; polymer implant plus radiation 24 hours after implant, FIG. 6): no significant tumour growth for a much longer period | Acute toxicity (death) [10]: died because of acute toxicity | Concentration at which compound began to kill the cancer cells (HeLa cells): 0.1 mM | Lethal concentration (HeLa cells): 1 mM | CC50 ([4]; MCF7, 48 h): 150 µM | CC50 ([4]; MCF7, 96 h): 80 µM

COc1cccc2c1C(=O)c1c(O)c3c(c(O)c1C2=O)C[C@@](O)(C(=O)CO)C[C@@H]3O[C@H]1C[C@H](N)[C@H](O)[C@H](C)O1 [adriamycin]
Mortality ([8]; 7.5 mg/Kg/iv, highest dose tested, FIG. 19): 100% | Antitumour effect on primary tumour ([8]; minimal dose of 5 mg/Kg iv): potent antitumour effect
